# Experimental data reported in publication PMC3375280 (PLoS ONE, 2012).
# Biological target: T1, AT1 C76A/V116C/C289A mutant receptor (Rattus norvegicus, UniProt P25095, C289A/C76A/V116C)
# T1 construct: expressed in transfected cells; host or cells: COS1 cells (membranes)
# T1 sequence (P25095 1-359 C76A/V116C/C289A): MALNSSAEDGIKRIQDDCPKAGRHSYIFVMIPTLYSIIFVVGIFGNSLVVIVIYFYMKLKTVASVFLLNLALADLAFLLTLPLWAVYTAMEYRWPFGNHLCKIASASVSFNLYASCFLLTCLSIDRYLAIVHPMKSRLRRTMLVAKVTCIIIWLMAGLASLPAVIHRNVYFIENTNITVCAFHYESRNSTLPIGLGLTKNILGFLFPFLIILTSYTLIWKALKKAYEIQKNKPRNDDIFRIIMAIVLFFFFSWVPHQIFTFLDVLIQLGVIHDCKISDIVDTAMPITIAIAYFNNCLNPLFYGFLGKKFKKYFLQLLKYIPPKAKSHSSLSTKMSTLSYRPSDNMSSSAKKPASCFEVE
# Experiment: substituted cysteine accessibility mapping (SCAM), C76A/V116C/C289A
# Format: binding
# Parameters: key: Less and More indicate that the AT1 receptor is less or more accessible to the ligand pocket, respectively; Less and More indicate that the AT1 receptor is less or more accessible to the ligand pocket, respectively; No change
# Conditions: 1 µM ARB, […] MTSEA+, COS1 membranes
# Excerpt: As we reported previously, the percentage (%) inhibition of ^125I-[Sar^1, Ile^8] AngII binding by methanethiosulphonate ethyl-ammonium (MTSEA^+) reagent was approximately 30% on AT1 receptor, since Cys^76 in TM2 was accessible to water within the ligand pocket. In addition, mechanical stretching increased the accessibility of Cys^289 by inducing a change in the conformation of TM7 [22]. To differentiate between single and multiple movements of one or more native cysteines, we created TM3 residues that were substituted with cysteine one at a time from […] to Phe^117 using the C76A/C289A mutant genetic background and evaluated each triple mutant for MTSEA sensitivity.
# Figure 3 Changes in cysteine accessibility in COS1 cells expressing C76A/C289A mutant receptors in which the transmenbrane 3 residues from Ala^106 to Phe^117, except for position 113, were successively replaced by cysteine. 1 µM of ARBs, n=4–9, *p<0.05 vs. no treatment. #p<0.05 vs. C76A/C289A.
# The SCAM method has been used to probe relative changes in the conformation of constitutively active AT1 receptor [20]–[22] and other GPCRs, [30] by validating the presence of Cys residues within the ligand pocket. […]
row,SMILES,Cysteine accessibility at Val116 compared to ligand (-)
1,"CCCc1nc(C(C)(C)O)c(C(=O)O)n1Cc1ccc(-c2ccccc2-c2nnn[nH]2)cc1 [Olmesartan, olmesartan, reference compound]",No change
2,CCCc1nc(C(C)(C)O)c(C(N)=O)n1Cc1ccc(-c2ccccc2-c2nnn[nH]2)cc1 [R239470],No change
